# Measurements reported in patent US20260317299A1, “PIKFYVE PROTEIN KINASE DEGRADATION AGENT AND USE THEREOF” (Shanghai Institute of Organic Chemistry, Chinese Academy of …, priority 2023, published 2026).
# Target: T1, PIKfyve (Homo sapiens, UniProt Q9Y2I7)
# T1 construct: endogenous in cells; host or cells: VCaP
# Experiment: Degradation of PIKfyve proteins in VCaP tumor cells (24 h, Western blot)
# Assay type: cell-based
# Details: 37° C., compared with DMSO control, WB, read-out: DC50 (concentration that achieves 50% degradation activity)
# Summary of the method: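 VCaP cells (5×10^6 cells/ml) treated with a range of compound concentrations at 37° C for 24 h, then lysed in SDS buffer. PIKfyve level measured by Western blot with GAPDH as loading control and ECL detection. DC50 is the concentration giving 50% degradation relative to DMSO control.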
# T1 sequence (Q9Y2I7 whole entry): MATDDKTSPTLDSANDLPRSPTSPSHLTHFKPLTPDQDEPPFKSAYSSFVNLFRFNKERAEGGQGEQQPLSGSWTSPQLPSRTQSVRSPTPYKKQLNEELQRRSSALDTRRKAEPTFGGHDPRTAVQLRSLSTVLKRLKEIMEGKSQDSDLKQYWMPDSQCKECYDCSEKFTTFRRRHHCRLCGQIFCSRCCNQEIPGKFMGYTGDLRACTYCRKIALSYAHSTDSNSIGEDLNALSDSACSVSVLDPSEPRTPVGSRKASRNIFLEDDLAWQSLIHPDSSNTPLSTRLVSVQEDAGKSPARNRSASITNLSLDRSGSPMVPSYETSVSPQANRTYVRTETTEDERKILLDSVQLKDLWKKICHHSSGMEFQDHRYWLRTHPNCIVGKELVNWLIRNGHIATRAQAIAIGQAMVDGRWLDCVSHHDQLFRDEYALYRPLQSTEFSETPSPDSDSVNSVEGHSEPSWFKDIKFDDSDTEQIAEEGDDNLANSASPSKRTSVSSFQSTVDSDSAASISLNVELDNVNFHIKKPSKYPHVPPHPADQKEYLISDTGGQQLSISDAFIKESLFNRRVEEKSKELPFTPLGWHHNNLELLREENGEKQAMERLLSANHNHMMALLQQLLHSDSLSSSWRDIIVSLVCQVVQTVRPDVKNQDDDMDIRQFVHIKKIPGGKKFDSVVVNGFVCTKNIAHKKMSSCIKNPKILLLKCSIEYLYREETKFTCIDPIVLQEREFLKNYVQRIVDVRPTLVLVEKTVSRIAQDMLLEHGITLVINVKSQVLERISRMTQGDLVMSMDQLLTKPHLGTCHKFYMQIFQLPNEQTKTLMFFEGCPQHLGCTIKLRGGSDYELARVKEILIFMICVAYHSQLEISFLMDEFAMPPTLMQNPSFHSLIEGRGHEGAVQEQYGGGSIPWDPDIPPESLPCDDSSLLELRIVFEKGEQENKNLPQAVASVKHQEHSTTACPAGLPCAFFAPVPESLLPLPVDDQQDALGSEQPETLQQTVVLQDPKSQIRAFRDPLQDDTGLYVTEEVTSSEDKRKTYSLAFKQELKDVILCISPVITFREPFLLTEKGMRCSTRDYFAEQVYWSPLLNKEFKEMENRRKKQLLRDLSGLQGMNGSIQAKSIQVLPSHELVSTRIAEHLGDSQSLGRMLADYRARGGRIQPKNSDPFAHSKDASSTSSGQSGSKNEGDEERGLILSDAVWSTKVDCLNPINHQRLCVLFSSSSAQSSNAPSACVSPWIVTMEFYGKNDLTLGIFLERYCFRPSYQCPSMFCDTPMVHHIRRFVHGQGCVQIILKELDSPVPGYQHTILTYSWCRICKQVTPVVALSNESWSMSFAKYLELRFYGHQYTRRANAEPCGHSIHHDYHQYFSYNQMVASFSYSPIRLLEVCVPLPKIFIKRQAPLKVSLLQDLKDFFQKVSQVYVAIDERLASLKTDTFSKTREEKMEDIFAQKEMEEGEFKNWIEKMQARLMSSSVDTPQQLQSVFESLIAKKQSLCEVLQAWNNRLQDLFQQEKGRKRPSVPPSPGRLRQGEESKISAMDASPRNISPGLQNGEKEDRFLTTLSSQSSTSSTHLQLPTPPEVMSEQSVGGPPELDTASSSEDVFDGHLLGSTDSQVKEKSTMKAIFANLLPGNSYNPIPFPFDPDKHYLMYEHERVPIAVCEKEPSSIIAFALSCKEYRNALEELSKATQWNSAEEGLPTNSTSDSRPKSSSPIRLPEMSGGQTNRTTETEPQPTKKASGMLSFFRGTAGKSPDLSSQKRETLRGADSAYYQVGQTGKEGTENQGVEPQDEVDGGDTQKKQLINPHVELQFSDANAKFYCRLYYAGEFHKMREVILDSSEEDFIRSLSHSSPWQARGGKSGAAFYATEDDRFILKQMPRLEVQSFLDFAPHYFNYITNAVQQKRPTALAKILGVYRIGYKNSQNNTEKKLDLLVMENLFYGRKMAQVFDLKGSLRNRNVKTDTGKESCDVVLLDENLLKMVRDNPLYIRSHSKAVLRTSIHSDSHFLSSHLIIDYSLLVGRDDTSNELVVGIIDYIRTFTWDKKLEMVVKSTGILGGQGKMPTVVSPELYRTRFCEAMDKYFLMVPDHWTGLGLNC
row,Structure (SMILES),DC50
1,"Cc1cccc(/C=N/Nc2cc(N3CCOCC3)nc(OCCc3ccc(NC(=O)CCC(=O)N[C@H](C(=O)N4C[C@H](O)C[C@H]4C(=O)NCc4ccc(-c5scnc5C)cc4)C(C)(C)C)cc3)n2)c1 [Example 37, N^1—((S)-1-((2S,4R)-4-hydroxy-2-((4-(4-methylthiazol-5-yl)benzyl)carbamoyl)pyrrolidine-1-yl)-3,3-dimethyl-1-oxobutan-2-yl)-N^4-(4-(2-((4-(2-((E)-3-methylbenzylidene) hydrazino)-6-morpholinopyrimidin-2-yl)oxy)ethyl)phenyl)succinimide]",100 to 10000 nM
2,"Cc1cccc(-c2ccn(-c3cc(N4CCOCC4)nc(OC4CCN(c5ccc(CN6CCN(c7cc8c(cc7F)C(=O)N(C7CCC(=O)NC7=O)C8=O)CC6)cc5)CC4)n3)n2)c1 (stereo not drawn) [Example 95, 2-(2,6-Dioxopiperidin-3-yl)-5-fluoro-6-(4-(4-(4-((4-morpholino-6-(3-(m-tolyl)-1H-pyrazol-1-yl)pyrimidin-2-yl)oxy)piperidin-1-yl)benzyl)piperazin-1-yl)isoindoline-1,3-dione]",100 to 10000 nM
3,"Cc1cccc(-c2ccn(-c3cc(N4CCOCC4)nc(OCCc4ccc(N5CCN(C(=O)CC[C@H](NC(=O)[C@@H]6C[C@@H](O)CN6C(=O)[C@@H](NC(=O)C6(F)CC6)C(C)(C)C)c6ccc(-c7scnc7C)cc6)CC5)cc4)n3)n2)c1 [Example 76, (2S,4R)-1-((S)-2-(1-fluorocyclopropane-1-carboxamido)-3,3-dimethylbutanoyl)-4-hydroxy-N—((S)-1-(4-(4-methylthiazol-5-yl)phenyl)-4-(4-(4-(2-((4-morpholino-6-(3-(m-tolyl)-1H-pyrazol-1-yl)pyrimidin-2-yl)oxy)ethyl)phenyl)piperazin-1-yl)-4-oxobutyl)pyrrolidine-2-carboxamide]",1 to 100 nM
4,Cc1cccc(/C=N/Nc2cc(N3CCOCC3)nc(OCCc3ccc(NC(=O)CCCCCCCCC(=O)N[C@H](C(=O)N4C[C@H](O)C[C@H]4C(=O)N[C@@H](C)c4ccc(-c5scnc5C)cc4)C(C)(C)C)cc3)n2)c1 [Example 48],1 to 100 nM
5,"Cc1cccc(-c2ccn(-c3cc(N4CCOCC4)nc(OC4CCN(c5ccc(NC(=O)CCCC[C@H](NC(=O)[C@@H]6C[C@@H](O)CN6C(=O)[C@@H](NC(=O)C6(F)CC6)C(C)(C)C)c6ccc(-c7scnc7C)cc6)cc5)CC4)n3)n2)c1 [Example 69, (2S,4R)-1-((S)-2-(1-fluorocyclopropane-1-carboxamido)-3,3-dimethylbutanoyl)-4-hydroxy-N—((S)-1-(4-(4-methylthiazol-5-yl)phenyl)-6-((4-(4-((4-morpholino-6-(3-(m-tolyl)-1H-pyrazol-1-yl)pyrimidin-2-yl)oxy)piperidin-1-yl)phenyl)amino)-6-oxohexyl)pyrrolidine-2-carboxamide]",1 to 100 nM
6,"Cc1cccc(/C=N/Nc2cc(N3CCOCC3)nc(OCCc3ccc(NC(=O)CCCCCNC(=O)CC[C@H](NC(=O)[C@@H]4C[C@@H](O)CN4C(=O)[C@@H](NC(=O)C4(F)CC4)C(C)(C)C)c4ccc(-c5scnc5C)cc4)cc3)n2)c1 [Example 52, (2S,4R)-1-((S)-2-(1-fluorocyclopropane-1-carboxamido)-3,3-dimethylbutanoyl)-4-hydroxy-N—((S)-4-((6-((4-(2-((4-(2-((E)-3-methylbenzylidene)hydrazino)-6-morpholinopyrimidin-2-yl)oxy)ethyl)phenyl)amino)-6-oxohexyl)amino)-1-(4-(4-methylthiazol-5-yl)phenyl)4-oxobutyl)pyrrolidine-2-carboxamide]",1 to 100 nM
7,"Cc1cccc(/C=N/Nc2cc(N3CCOCC3)nc(OCCc3ccc(NC(=O)CCCCCCCC(=O)N[C@H](C(=O)N4C[C@H](O)C[C@H]4C(=O)NCc4ccc(-c5scnc5C)cc4)C(C)(C)C)cc3)n2)c1 [Example 43, N^1—((S)-1-((2S,4R)-4-hydroxy-2-((4-(4-methylthiazol-5-yl)benzyl)carbamoyl)pyrrolidine-1-yl)-3,3-dimethyl-1-oxobutan-2-yl)-N^9-(4-(2-((4-(2-((E)-3-methylbenzylidene) hydrazino)-6-morpholinopyrimidin-2-yl)oxy)ethyl)phenyl)nonediamide]",1 to 100 nM

# Now from value to molecule:
row,DC50,Structure (SMILES)
1,1 to 100 nM,"Cc1cccc(-c2ccn(-c3cc(N4CCOCC4)nc(OC4CCN(c5ccc(NC(=O)NC6CN(C(=O)CC[C@H](NC(=O)[C@@H]7C[C@@H](O)CN7C(=O)[C@@H](NC(=O)C7(F)CC7)C(C)(C)C)c7ccc(-c8scnc8C)cc7)C6)cc5)CC4)n3)n2)c1 [Example 81, (2S,4R)-1-((S)-2-(1-fluorocyclopropane-1-carboxamido)-3,3-dimethylbutanoyl)-4-hydroxy-N—((S)-1-(4-(4-methylthiazol-5-yl)phenyl)-4-(3-(3-(4-(4-((4-morpholino-6-(3-(m-tolyl)-1H-pyrazol-1-yl)pyrimidin-2-yl)oxy)piperidin-1-yl)phenyl)ureido)azetidin-1-yl)-4-oxobutyl)pyrrolidine-2-carboxamide]"
2,1 to 100 nM,"Cc1cccc(/C=N/Nc2cc(N3CCOCC3)nc(OCCc3ccc(NC(=O)COc4cc(-c5scnc5C)ccc4CNC(=O)[C@@H]4C[C@@H](O)CN4C(=O)[C@@H](NC(=O)C4(F)CC4)C(C)(C)C)cc3)n2)c1 [Example 53, (2S,4R)-1-((S)-2-(1-fluorocyclopropane-1-carboxamido)-3,3-dimethylbutanoyl)-4-hydroxy-N-(2-(2-((4-(2-((4-(2-((E)-3-methylbenzylidene)hydrazino)-6-morpholinopyrimidin-2-yl)oxy)ethyl)phenyl)amino)-2-oxoethoxy)-4-(4-methylthiazol-5-yl)benzyl)pyrrolidine-2-carboxamide]"
3,1 to 100 nM,"Cc1cccc(-c2ccn(-c3cc(N4CCOCC4)nc(OCCc4ccc(NC(=O)CCCCCNC(=O)COc5cc(-c6scnc6C)ccc5CNC(=O)[C@@H]5C[C@@H](O)CN5C(=O)[C@@H](NC(=O)C5(F)CC5)C(C)(C)C)cc4)n3)n2)c1 [Example 66, (2S,4R)-1-((S)-2-(1-fluorocyclopropane-1-carboxamido)-3,3-dimethylbutanoyl)-4-hydroxy-N-(4-(4-methylthiazol-5-yl)-2-(2-((6-((4-(2-((4-morpholino-6-(3-(m-tolyl)-1H-pyrazol-1-yl)pyrimidin-2-yl)oxy)ethyl)phenyl)amino)-6-oxohexyl)amino)-2-oxoethoxy)benzyl) pyrrolidine-2-carboxamide]"
4,1 to 100 nM,"Cc1cccc(/C=N/Nc2cc(N3CCOCC3)nc(OCCc3ccc(NC(=O)CC[C@H](NC(=O)[C@@H]4C[C@@H](O)CN4C(=O)[C@@H](NC(=O)C4(F)CC4)C(C)(C)C)c4ccc(-c5scnc5C)cc4)cc3)n2)c1 [Example 49, (2S,4R)-1-((S)-2-(1-fluorocyclopropane-1-carboxamido)-3,3-dimethylbutanoyl)-4-hydroxy-N—((S)-4-((4-(2-((4-(2-((E)-3-methylbenzylidene)hydrazino)-6-morpholinopyrimidin-2-yl)oxy)ethyl)phenyl)amino)-1-(4-(4-methylthiazol-5-yl)phenyl)4-oxobutyl)pyrrolidine-2-carboxamide]"
5,100 to 10000 nM,"Cc1cccc(-c2ccn(-c3cc(N4CCOCC4)nc(OCCc4ccc(N5CCN(CC6CCN(c7cc8c(cc7F)C(=O)N(C7CCC(=O)NC7=O)C8=O)CC6)CC5)cc4)n3)n2)c1 (stereo not drawn) [Example 91, 2-(2,6-Dioxopiperidin-3-yl)-5-fluoro-6-(4-((4-(4-(2-((4-morpholino-6-(3-(m-tolyl)-1H-pyrazol-1-yl)pyrimidin-2-yl)oxy)ethyl)phenyl)piperazin-1-yl)methyl)piperidin-1-yl)isoindoline-1,3-dione]"
